Experimental data from patent US12377069B2, “Compounds, compositions, methods of using, and methods for preparing compounds” (UNIVERSITY OF LOUISVILLE RESEARCH FOUNDATION, INC., priority 2018, dated 2025).

What was measured:
C57BL/6 mice = experiment: LPS-induced peritonitis mouse model; assay type: in vivo; settings: 20 mg/kg; LPS 2 mg/kg i.p.; 4 h post LPS
Protocol: FIG. 1: UAS03 is a potent anti-inflammatory structural analogue of UroA and induces tight junction proteins. (A) Chemical structures of UroA, UAS03. UroA/UAS03 stability was examined in the presence of gastric pH 2.0 and digestive enzymes. UroA and UAS03 (0.2 mg/ml) were incubated with digestive enzymes (esterases and proteases, 100 U/ml) for 12 h at 37° C. and compound levels were quantified. (B) BMDMs were stimulated with LPS (50 ng/ml) without or with UroA (blue line)/UAS03 (purple line) (0.1, 1, 10, 25 and 50 μM) for 6 hours. IL-6 and TNF-α levels in supernatants were measured. (C) C57BL/6 mice (n=3-4) were pretreated with UroA (20 mg/kg) and UAS03 (20 mg/kg). After 4 hours, LPS (2 mg/kg) was injected intraperitoneally. Post 4 h of LPS administration, serum levels of IL-6 and TNF-α was measured. […] (G) The fold changes in mRNA levels of claudin 4 (Cldn4), occludin (Ocln) and Zona occludens 1 (ZO1) in HT29 cells were determined by RT PCR method. (H) UroA/UAS03 induced protein expression of Cldn4, Ocln and ZO1 in HT29 cells were determined by immunoblots and quantified by Image J software. […] The green intensity (n=15-20 cell membrane regions) was measured. […] The protein lysates were prepared from colon scrapes and subjected to immunoblots and detected the expression of the (J) Nrf2, HO1, Cldn4 and (K) AhR using appropriate antibodies as described in methods. […]

Cyp1A1 = Cyp1A1 expression and enzyme activity in vitro (P450-Glo, EROD); assay type: cell-based, human; settings: for Cyp1A1 enzyme activity in colon epithelial cells: HT29, 24 h, P450-Glo and EROD
Protocol: Measurment of Cyp1A1 enzyme activities in vitro. EROD assay: HT-29 cells (15,000 cells/well) treated with vehicle, UroA and UAS03 (24 hrs), were rinsed with HBSS buffer, and then fresh HBSS buffer was added along with 5 μM of 7-ethoxyresorufin. Cells were further incubated at 37° C. for 1 h. After the incubation time, fluorescence (Exc. 530 nm, Em. 580 nm) was measured and product (resorufin) formed was calculated from calibration standard and normalized with protein concentration.
P450-Glo Cyp1A1 luminiscence assay: HT29 cells (25,000 cells/well) were plated in 48 well plate. Cell were then treated with UroA (0.1, 1, 10, 25 and 50 μM) or UAS03 (0.1, 1, 10, 25 and 50 μM) or FICZ (0.1, 1, 10, 25 and 50 nM) for 24 hrs. After treatment, cells were washed to remove any residual drugs, and fresh medium containing Cyp1A1 substrate (as per protocol provided with kit Cat. #V8751; Promega) for 3 hr. After incubation, 25 μl of culture medium was removed from each well and transferred to a 96-well white opaque plate and 25 μl of luciferin detection reagent was added to initiate the luminescence reaction and plate was incubated at room temperature for 20 min. After incubation, luminescence was recorded in luminometer. The data reported as fold change over vehicle treatment.

[1] = system: colon cancer cell line (SW480); experiment: Proliferation assay with 5FU; settings: for effect on cell proliferation, compound alone: without 5FU

Oc1ccc2c(c1)COc1cc(O)ccc1-2 [UAS03, 6H-benzo[c]chromene-3,8-diol]
LPS-induced increase in serum IL-6 and TNF-α levels (C57BL/6 mice): reduced | Cyp1A1 enzyme activity in colon epithelial cells (Cyp1A1): induced Cyp1A1 activity | fold less 5FU drug concentration to reach the similar effect ([1]; combination with 5FU): more than 32 fold | increase in the inhibition of cell proliferation ([1]; with 3.12 μM of 5FU): approximately 6 fold | cell viability in combination with 5FU ([1]; with 5FU): 40% | effect on cell proliferation, compound alone [1]: minimal effect

O=c1oc2cc(O)ccc2c2ccc(O)cc12 [UroA, 3,8-dihydroxy-6H-dibenzo[b,d]pyran-6-one]
LPS-induced increase in serum IL-6 and TNF-α levels (C57BL/6 mice): reduced | Cyp1A1 expression (RNA-Seq and real time PCR) (Cyp1A1; HT29, 50 μM, 24 h): upregulated | Cyp1A1 enzyme activity in colon epithelial cells (Cyp1A1): induced Cyp1A1 activity | effect on cell proliferation, compound alone [1]: minimal effect
